According to US20130190200A1, “SNP FOR PREDICTING THE SENSITIVITY TO ANTICANCER TARGETED THERAPEUTIC FORMULATION” (Korea Research Institute of Bioscience and Biotechnology, priority 2010, published 2013):

Experiments:
[1] = tested on: metastatic cancer patients; assay: Clinical association analysis of drug response (RECIST criteria) on subjects treated with anticancer targeted drugs; format: in vivo, human; settings: homozygous substitution alleles of ANXA11 rs1049550 and homozygous or heterozygous substitution alleles of LINS1 rs11247226; P=0.025, 0.019
Source text: (§1) The prediction of clinical outcomes of the corresponding patients was based on the NCCN surveillance guidelines (www.nccn.org), and the determination of chemosensitivity to anticancer drugs were based on the RECIST criteria (Therasse et al., J Natl Cancer Inst 2000; 92:205-16).

[2] = tested on: recurrent and metastatic colorectal cancer patients; assay: Clinical association analysis related to survival on subjects treated with anticancer targeted drugs; format: in vivo, human
Description: as §1
Association analysis was performed on the SNP genotypes sensitive to the individual anticancer drugs obtained in steps (1) and (2) in colorectal cancer patients whose treatment with the corresponding drugs was terminated.

bevacizumab
disease-control response rate, in words [1]: significantly high disease-control response rate
sensitivity and survival, in words (FIG. 2) ([2]; homozygous or heterozygous substitution alleles of ITGA3 rs2230392 vs homozygous reference alleles): greater sensitivity and longer progression-free survival and overall survival
mean overall survival (OS) ([2]; patients carrying homozygous or heterozygous substitution alleles of ITGA3 rs2230392, P=0.006 vs homozygous reference): 22.5±2.1 months
mean progression-free survival (PFS) ([2]; patients carrying homozygous or heterozygous substitution alleles of ITGA3 rs2230392, P=0.018 vs homozygous reference): 8.7±0.7 months
mean overall survival (OS) ([2]; patients with homozygous reference alleles of ITGA3 rs2230392, P=0.006): 13.4±1.9 months
mean progression-free survival (PFS) ([2]; patients with homozygous reference alleles of ITGA3 rs2230392, P=0.018): 5.7±0.7 months
